By IC50 is commonly meant the point on the concentration scale where inhibition reaches its midpoint.

Molecules are shown by their SMILES.

The target of this assay is T1, FXR ligand binding domain (GST-FXR LBD fusion protein, human FXR aa 193-473) (Homo sapiens, UniProt Q96RI1).
T1 construct: fused on or other part: Glutathione-S-transferase (GST) fused N-terminally to the FXR LBD, used to capture the protein on glutathione SPA beads
T1 sequence (Q96RI1 211-486 limits assumed): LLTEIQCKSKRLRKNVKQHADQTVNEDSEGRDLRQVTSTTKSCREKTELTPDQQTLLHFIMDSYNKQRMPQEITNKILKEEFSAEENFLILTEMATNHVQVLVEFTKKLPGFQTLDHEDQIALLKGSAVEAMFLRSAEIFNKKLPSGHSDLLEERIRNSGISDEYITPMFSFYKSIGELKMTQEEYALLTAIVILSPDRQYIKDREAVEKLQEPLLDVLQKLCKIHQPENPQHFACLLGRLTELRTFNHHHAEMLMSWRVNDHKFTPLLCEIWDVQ
In words: Radioligand binding assay (scintillation proximity, radioligand displacement). To be noted: 40 nM GST-FXR LBD on SPA beads, test compound 6×10^−9 M to 2.5×10^−5 M, read-out: h-IC50 Binding. Summed up: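 40 nM GST-FXR LBD, E. coli-expressed, bound to glutathione yttrium silicate SPA beads in 50 mM Hepes pH 7.4, 10 mM NaCl, 5 mM MgCl2, 0.01% CHAPS. Test compounds displace radioligand (e.g. 20 nM benzimidazolyl-acetamide ligand); bound ligand measured by scintillation proximity counting.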
Background: Scintillation proximity formats need no separation of bound from free tracer.
`Cc1cc(-c2nnn[nH]2)cc(C)c1OCC(C1CCCCC1)n1c(-c2ccc(Cl)cc2)nc2ccccc21` (stereo not shown) [Example 111, 2-(4-Chloro-phenyl)-1-{1-cyclohexyl-2-[2,6-dimethyl-4-(1H-tetrazol-5-yl)-phenoxy]-ethyl}-1H-benzoimidazole]: the half-maximal inhibitory concentration (IC50) came out at 0.02 µM.

In the case of `CC(C)(Oc1cccc(OCC(C2CCCCC2)n2c(-c3ccc(Cl)cc3)nc3cc(F)c(F)cc32)c1)C(=O)O` (stereo not shown) [Example 95, 2-(3-{2-[2-(4-Chloro-phenyl)-5,6-difluoro-benzoimidazol-1-yl]-2-cyclohexyl-ethoxy}-phenoxy)-2-methyl-propionic acid], the IC50 is 0.6 µM.

On to `O=C(O)c1c(F)cc(OCC(C2CCCCC2)n2c(-c3ccc(Cl)cc3)nc3cc(F)c(F)cc32)cc1F` (single isomer, unassigned; (-)) [Example 44, (−)-4-{2-[2-(4-Chloro-phenyl)-5,6-difluoro-benzoimidazol-1-yl]-2-cyclohexyl-ethoxy}-2,6-difluoro-benzoic acid], for which the IC50 is 0.4 µM.

Regarding `COc1ccc(-c2nc3cc(F)c(F)cc3n2C(COc2ccc(C(=O)O)cc2F)C2CCCCC2)c(OC)n1` (stereo not shown) [Example 46, 4-{2-Cyclohexyl-2-[2-(2,6-dimethoxy-pyridin-3-yl)-5,6-difluoro-benzoimidazol-1-yl]-ethoxy}-3-fluoro-benzoic acid], the IC50 was found to be 0.1 µM.

For `O=C(O)c1cc(F)c(OCC(C2CCCCC2)n2c(-c3ccc(Cl)cc3)nc3cc(F)c(F)cc32)c(Cl)c1` (stereo not shown) [Example 76, 3-Chloro-4-{2-[2-(4-chloro-phenyl)-5,6-difluoro-benzoimidazol-1-yl]-2-cyclohexyl-ethoxy}-5-fluoro-benzoic acid], the IC50 was determined as 0.004 µM.

As for `Cc1cc(-c2nnn[nH]2)cc(C)c1OCC(C1CCCCC1)n1c(-c2ccc(Cl)cc2)nc2cc(F)c(F)cc21` (stereo not shown) [Example 70, 2-(4-Chloro-phenyl)-1-{1-cyclohexyl-2-[2,6-dimethyl-4-(1H-tetrazol-5-yl)-phenoxy]-ethyl}-5,6-difluoro-1H-benzoimidazole], the IC50 was determined as 0.01 µM.

In the case of `Cc1cc(C(=O)O)cc(C)c1OCC(C1CCCCC1)n1c(-c2ccc(Cl)cc2)nc2ccccc21` (single isomer, unassigned; (-)) [Example 106, (−)-4-{2-[2-(4-Chloro-phenyl)-benzoimidazol-1-yl]-2-cyclohexyl-ethoxy}-3,5-dimethyl-benzoic acid], the IC50 came to 0.1 µM.

For `O=C(O)c1cc(F)c(OCC(C2CCCCCC2)n2c(-c3ccc(Cl)cc3)nc3cc(F)c(F)cc32)c(F)c1` (stereo not shown) [Example 131, 4-{2-[2-(4-Chloro-phenyl)-5,6-difluoro-benzoimidazol-1-yl]-2-cycloheptyl-ethoxy}-3,5-difluoro-benzoic acid], the IC50 amounted to 0.02 µM.

For `Fc1cc(-c2nnn[nH]2)cc(F)c1OCC(C1CCCCC1)n1c(-c2ccc(Cl)cc2)nc2ccccc21` (stereo not shown) [Example 128, 2-(4-Chloro-phenyl)-1-{1-cyclohexyl-2-[2,6-difluoro-4-(1H-tetrazol-5-yl)-phenoxy]-ethyl}-1H-benzoimidazole], the IC50 was determined as 0.02 µM.

Take `O=C(O)C1(Oc2ccc(OCC(C3CCCCC3)n3c(-c4ccc(Cl)cc4)nc4cc(F)c(F)cc43)cc2)CCC1` (single isomer, unassigned; (+)) [Example 118, (+)-1-(4-{2-[2-(4-Chloro-phenyl)-5,6-difluoro-benzoimidazol-1-yl]-2-cyclohexyl-ethoxy}-phenoxy)-cyclobutanecarboxylic acid]: the IC50 was determined as 0.31 µM.

`Cc1cc(-c2nnn[nH]2)cc(C)c1OCC(C1CC1)n1c(-c2ccc(Cl)cc2)nc2cc(F)c(F)cc21` (stereo not shown) [Example 136, 2-(4-Chloro-phenyl)-1-{1-cyclopropyl-2-[2,6-dimethyl-4-(1H-tetrazol-5-yl)-phenoxy]-ethyl}-5,6-difluoro-1H-benzoimidazole]: the IC50 worked out at 0.1 µM.

With `O=C(O)C1(Oc2ccc(OCC(C3CCCCC3)n3c(-c4ccc(Cl)cc4)nc4cc(F)c(F)cc43)nc2)CC1` (single isomer, unassigned; (-)) [Example 51, (−)-1-(6-{2-[2-(4-Chloro-phenyl)-5,6-difluoro-benzoimidazol-1-yl]-2-cyclohexyl-ethoxy}-pyridin-3-yloxy)-cyclopropanecarboxylic acid], the IC50 was determined as 0.3 µM.

As for `O=C(O)c1cc(F)c(OCC(C2CCCCC2)n2c(-c3ccc(Cl)cc3)nc3cc(F)c(F)cc32)c(F)c1` (single isomer, unassigned; (+)) [Example 87, (+)-4-{2-[2-(4-Chloro-phenyl)-5,6-difluoro-benzoimidazol-1-yl]-2-cyclohexyl-ethoxy}-3,5-difluoro-benzoic acid], the IC50 turned out to be 0.04 µM.

`O=C(O)C1(Oc2ccc(OCC(C3CCCCC3)n3c(-c4ccc(Cl)cc4)nc4cc(F)c(F)cc43)cc2)CC1` (single isomer, unassigned; (-)) [Example 121, (−)-1-(4-{2-[2-(4-Chloro-phenyl)-5,6-difluoro-benzoimidazol-1-yl]-2-cyclohexyl-ethoxy}-phenoxy)-cyclopropanecarboxylic acid]: the IC50 is 0.02 µM.

With `O=C(O)c1ccc(COCC(C2CCCCC2)n2c(-c3ccc(Cl)cc3)nc3cc(F)c(F)cc32)nc1` (stereo not shown) [Example 67, 6-{2-[2-(4-Chloro-phenyl)-5,6-difluoro-benzoimidazol-1-yl]-2-cyclohexyl-ethoxymethyl}-nicotinic acid], the IC50 was found to be 2.5 µM.

In the case of `Cc1cc(-c2nnn[nH]2)cc(C)c1OCC(C1CCCCC1)n1c(-c2ccc(Cl)cc2)nc2ccccc21` (single isomer, unassigned; (+)) [Example 113, (+)-2-(4-Chloro-phenyl)-1-{1-cyclohexyl-2-[2,6-dimethyl-4-(1H-tetrazol-5-yl)-phenoxy]-ethyl}-1H-benzoimidazole], the IC50 turned out to be 0.002 µM.

Consider `COc1ccc(-c2nc3cc(F)c(F)cc3n2C(COc2ccc(C(=O)O)cn2)C2CCCCC2)c(OC)n1` (single isomer, unassigned; (-)) [Example 75, (−)-6-{2-Cyclohexyl-2-[2-(2,6-dimethoxy-pyridin-3-yl)-5,6-difluoro-benzoimidazol-1-yl]-ethoxy}-nicotinic acid], for which the IC50 stood at 0.09 µM.

On to `COc1ccc(-c2nc3cc(F)c(F)cc3n2C(COc2c(F)cc(C(=O)O)cc2F)C2CCCCC2)c(OC)n1` (stereo not shown) [Example 96, 4-{2-Cyclohexyl-2-[2-(2,6-dimethoxy-pyridin-3-yl)-56-difluoro-benzoimidazol-1-yl]-ethoxy}-3,5-difluoro-benzoic acid], for which the IC50 turned out to be 0.002 µM.

Take `COc1ccc(-c2nc3cc(F)c(F)cc3n2C(COc2c(C)cc(-c3nnn[nH]3)cc2C)C2CCCCC2)c(OC)n1` (single isomer, unassigned; (+)) [Example 100, (+)-1-{1-Cyclohexyl-2-[2,6-dimethyl-4-(1H-tetrazol-5-yl)-phenoxy]-ethyl}-2-(2,6-dimethoxy-pyridin-3-yl)-5,6-difluoro-1H-benzoimidazole]: the IC50 is 0.02 µM.

(Values after patent publication US8088930B2, “Benzimidazole derivatives” (Hoffmann-La Roche Inc., priority 2008, dated 2012).)
